From EPA's ToxRefDB 2

Experiments:
rabbit = details: Sub-acute repeat dose toxicity, Oral, Gavage/Intubation, dose end: 13 day
rat [1] = details: Sub-acute repeat dose toxicity, wistar, Oral, Gavage/Intubation, dose end: 14 day, group: systemic
rat [2] = details: Sub-acute repeat dose toxicity, wistar, Oral, Gavage/Intubation, dose end: 28 day, group: systemic
rat [3] = details: Sub-acute repeat dose toxicity, wistar, Oral, Gavage/Intubation, dose end: 14 day, group: systemic; remark: listed apart in the source
dog [4] = details: Sub-acute repeat dose toxicity, beagle, Oral, Gavage/Intubation, dose end: 28 day, group: systemic
primate [5] = details: Sub-acute repeat dose toxicity, Oral, Gavage/Intubation, dose end: 28 day, group: systemic
primate [6] = details: Sub-acute repeat dose toxicity, Oral, Gavage/Intubation, dose end: 14 day, group: systemic
primate [7] = details: Sub-acute repeat dose toxicity; Oral; Gavage/Intubation; dose end: 5 day; group: systemic; systemic / clinical chemistry / [other] / [other] + systemic / clinical chemistry / plasma renin activity / plasma renin activity + systemic…
rat [8] = details: Sub-acute repeat dose toxicity; wistar; Oral; Gavage/Intubation; dose end: 14 day; group: systemic; systemic / in life observation / clinical signs / abnormal feces + systemic / in life observation / clinical signs / erythema + systemic / …
rat [9] = details: Subchronic oral toxicity in rodents, sprague dawley, Gavage/Intubation, dose end: 90 day, group: systemic
rat [10] = details: Combined chronic toxicity/carcinogenicity, Oral, Feed, dose end: 104 week, group: systemic
dog [11] = details: Subchronic oral toxicity in nonrodent, beagle, Feed, dose end: 13 week, group: systemic
dog [12] = details: Chronic toxicity, beagle, Oral, [Not Specified], dose end: 52 week, group: systemic
rat [13] = details: Multigenerational reproductive toxicity study, wistar, Oral, Feed, dose end: 2 generation
rat [14] = details: Subchronic oral toxicity in rodents, sprague dawley, Feed, dose end: 13 week, group: systemic
mouse [15] = details: Subchronic oral toxicity in rodents, cd1, Feed, dose end: 90 day, group: systemic, systemic / in life observation / body weight / body weight + systemic / in life observation / body weight / body weight gain
mouse [16] = details: Carcinogenicity; cd1; Oral; Feed; dose end: 78 week; group: systemic; systemic / organ weight / spleen / nos
mouse [17] = details: Subchronic oral toxicity in rodents, cd1, Feed, dose end: 13 week, group: systemic, systemic / in life observation / body weight / body weight gain
rat [18] = details: Subchronic oral toxicity in rodents, sprague dawley, Feed, dose end: 3 month, group: systemic, systemic / organ weight / liver / relative to body weight + systemic / pathology microscopic / liver / hypertrophy + systemic / pathology …
mouse [19] = details: Carcinogenicity, cd1, Oral, Feed, dose end: 18 month, group: systemic
dog [20] = details: Chronic toxicity, beagle, Oral, Feed, dose end: 52 week, group: systemic
rat [21] = details: Combined chronic toxicity/carcinogenicity, other, Oral, Feed, dose end: 24 month, group: systemic
dog [22] = details: Subchronic oral toxicity in nonrodent, beagle, Feed, dose end: 13 week, group: systemic, systemic / in life observation / body weight / body weight gain
[23] = group: maternal, reproductive / reproductive performance / aborted / aborted + reproductive / reproductive performance / resorptions / resorptions
[24] = group: systemic, systemic / in life observation / body weight / body weight gain
[25] = group: systemic, systemic / in life observation / body weight / body weight gain + systemic / in life observation / body weight / body weight + systemic / in…
[26] = systemic / in life observation / clinical signs / abnormal feces + systemic / in life observation / clinical signs / salivation + systemic…
[27] = systemic / in life observation / clinical signs / nasal discharge + systemic / in life observation / clinical signs / urine staining - …
[28] = systemic / in life observation / clinical signs / abnormal feces + systemic / in life observation / clinical signs / body cold to touch + …
[29] = systemic / in life observation / clinical signs / body cold to touch + systemic / in life observation / clinical signs / dehydration + …
[30] = systemic / clinical chemistry / alanine aminotransferase (alt/sgpt) / alanine aminotransferase (alt/sgpt) + systemic / clinical chemistry / …
[31] = systemic / in life observation / body weight / body weight + systemic / pathology microscopic / kidney / atrophy + systemic / pathology …
[32] = systemic / in life observation / clinical signs / abnormal feces + systemic / in life observation / clinical signs / dialated pupils + …
[33] = systemic / clinical chemistry / [other] / [other] + systemic / clinical chemistry / creatinine / creatinine + systemic / in life observation…
[34] = systemic / in life observation / body weight / body weight gain + systemic / in life observation / clinical signs / abnormal feces + …
[35] = systemic / clinical chemistry / globulins / globulins + systemic / clinical chemistry / protein / protein + systemic / hematology / …
[36] = systemic / in life observation / body weight / body weight + systemic / in life observation / food consumption / food consumption
[37] = systemic / in life observation / body weight / body weight + systemic / in life observation / body weight / body weight gain
[38] = systemic / in life observation / body weight / body weight + systemic / in life observation / body weight / body weight gain + systemic / …
[39] = systemic / organ weight / thymus / nos
[40] = systemic / organ weight / thymus / nos + systemic / hematology / platelet / platelet + systemic / organ weight / testes / nos
[41] = group: offspring, systemic / in life observation / clinical signs / grip strength
[42] = group: offspring, systemic / in life observation / clinical signs / grip strength + systemic / in life observation / body weight / offspring (pup) weight + …
[43] = group: parental, systemic / in life observation / body weight / body weight gain + systemic / in life observation / food consumption / food consumption + …
[44] = group: reproductive, reproductive / reproductive performance / estrous cycle / length
[45] = systemic / pathology microscopic / adrenal gland / vacuolization + systemic / clinical chemistry / cholesterol / cholesterol + systemic / …
[46] = systemic / hematology / lymphocyte / lymphocyte + systemic / organ weight / kidney / nos + systemic / organ weight / testes / nos + systemic…
[47] = systemic / organ weight / testes / nos
[48] = systemic / hematology / anemia / anemia - hemolytic + systemic / hematology / methemoglobin / methemoglobin + systemic / hematology / …
[49] = systemic / clinical chemistry / gamma glutamyl transferase (ggt) / gamma glutamyl transferase (ggt) + systemic / clinical chemistry / …

Structure (SMILES): Cc1cc(SC2=C(O)C[C@@](CCc3ccc(N)cc3)(C(C)C)OC2=O)c(C(C)(C)C)cc1CO [CI-1029]
- LEL (rabbit; [23]): 250 mg/kg/day
- LOAEL (rabbit; [23]): > 500 mg/kg/day
- NEL (rabbit; [23]): 100 mg/kg/day
- NOAEL (rabbit; [23]): ≥ 500 mg/kg/day
- LEL (rabbit; [24]): 50 mg/kg/day
- NEL (rabbit; [24]): < 50 mg/kg/day
- LOAEL (rabbit; [25]): > 500 mg/kg/day
- NOAEL (rabbit; [25]): ≥ 500 mg/kg/day
- LOAEL (rat [1]; [26]): > 1000 mg/kg/day
- NEL (rat [1]; [26]): 250 mg/kg/day
- NOAEL (rat [1]; [26]): ≥ 1000 mg/kg/day
- LEL (rat [1]; systemic / in life observation / clinical signs / urine staining - perineum): 500 mg/kg/day
- LOAEL (rat [2]; [27]): > 1000 mg/kg/day
- NEL (rat [2]; [27]): 100 mg/kg/day
- NOAEL (rat [2]; [27]): ≥ 1000 mg/kg/day
- LEL (rat [2]; systemic / in life observation / clinical signs / urine staining - perineum + systemic / in life observation / body weight / body weight …): 500 mg/kg/day
- LOAEL (rat [3]; [28]): > 5000 mg/kg/day
- NOAEL (rat [3]; [28]): ≥ 5000 mg/kg/day
- LEL (rat [3]; [29]): 500 mg/kg/day
- NEL (rat [3]; [29]): < 500 mg/kg/day
- LOAEL (dog [4]; [30]): > 500 mg/kg/day
- NOAEL (dog [4]; [30]): ≥ 500 mg/kg/day
- LEL (dog [4]; [31]): 100 mg/kg/day
- NEL (dog [4]; [31]): < 100 mg/kg/day
- LEL (primate [5]; systemic / in life observation / body weight / body weight + systemic / in life observation / clinical signs / abnormal feces + systemic / …): 500 mg/kg/day
- LOAEL (primate [5]; [32]): > 750 mg/kg/day
- NOAEL (primate [5]; [32]): ≥ 750 mg/kg/day
- LOAEL (primate [6]; [33]): > 1000 mg/kg/day
- NOAEL (primate [6]; [33]): ≥ 1000 mg/kg/day
- LEL (primate [6]; [34]): 100 mg/kg/day
- NEL (primate [6]; [34]): < 100 mg/kg/day
- LEL (primate [7]): 750 mg/kg/day
- LOAEL (primate [7]): > 750 mg/kg/day
- NEL (primate [7]): < 750 mg/kg/day
- NOAEL (primate [7]): ≥ 750 mg/kg/day
- LEL (rat [8]): 2500 mg/kg/day
- LOAEL (rat [8]): > 5000 mg/kg/day
- NEL (rat [8]): 1000 mg/kg/day
- NOAEL (rat [8]): ≥ 5000 mg/kg/day

Structure (SMILES): O=C(O)C(F)(F)C(F)(F)C(F)(F)C(F)(F)C(F)(F)F [PFHxA]
- LOAEL (rat [9]; [35]): > 200 mg/kg/day
- NOAEL (rat [9]; [35]): ≥ 200 mg/kg/day
- LEL (rat [9]; [36]): 10 mg/kg/day
- NEL (rat [9]; [36]): < 10 mg/kg/day

Structure (SMILES): CNC(=N[N+](=O)[O-])NCC1CCOC1 (stereo unspecified) [Dinotefuran]
- NEL (rat [10]; systemic / organ weight / uterus / relative to brain weight + systemic / organ weight / brain / relative to body weight + systemic / organ …): 1330 mg/kg/day
- LOAEL (rat [10]; systemic / pathology microscopic / kidney / ulcer + systemic / pathology microscopic / kidney / dilatation): 991 mg/kg/day
- NOAEL (rat [10]; systemic / pathology microscopic / kidney / ulcer + systemic / pathology microscopic / kidney / dilatation + systemic / pathology …): 99.7 mg/kg/day
- LOAEL (dog [11]; [37]): 58 mg/kg/day
- NOAEL (dog [11]; [37]): < 58 mg/kg/day
- LEL (dog [11]; [38]): 58 mg/kg/day
- NEL (dog [11]; [38]): < 58 mg/kg/day
- LOAEL (dog [12]; [39]): 20 mg/kg/day
- NOAEL (dog [12]; [39]): < 20 mg/kg/day
- LEL (dog [12]; [40]): 20 mg/kg/day
- NEL (dog [12]; [40]): < 20 mg/kg/day
- NEL (rat [13]; [41]): 269 mg/kg/day
- NOAEL (rat [13]; [41]): 269 mg/kg/day
- LEL (rat [13]; [42]): 935 mg/kg/day
- LOAEL (rat [13]; [42]): 935 mg/kg/day
- LEL (rat [13]; [43]): 822 mg/kg/day
- LOAEL (rat [13]; [43]): 822 mg/kg/day
- NEL (rat [13]; [43]): 241 mg/kg/day
- NOAEL (rat [13]; [43]): 241 mg/kg/day
- LEL (rat [13]; [44]): 907 mg/kg/day
- LOAEL (rat [13]; [44]): 907 mg/kg/day
- NEL (rat [13]; [44]): 268 mg/kg/day
- NOAEL (rat [13]; [44]): 268 mg/kg/day
- LOAEL (rat [14]; systemic / pathology microscopic / adrenal gland / vacuolization): 336 mg/kg/day
- NEL (rat [14]; [45]): 34 mg/kg/day
- NOAEL (rat [14]; [45]): 34 mg/kg/day
- LEL (rat [14]; systemic / pathology microscopic / adrenal gland / vacuolization + systemic / organ weight / liver / relative to body weight): 336 mg/kg/day
- LEL (mouse [15]): 10600 mg/kg/day
- LOAEL (mouse [15]): 10600 mg/kg/day
- NEL (mouse [15]): 4440 mg/kg/day
- NOAEL (mouse [15]): 4440 mg/kg/day
- LEL (mouse [16]): 3 mg/kg/day
- LOAEL (mouse [16]): 3 mg/kg/day
- NEL (mouse [16]): < 3 mg/kg/day
- NOAEL (mouse [16]): < 3 mg/kg/day

Structure (SMILES): COc1cccc(C(=O)NN(C(=O)c2cc(C)cc(C)c2)C(C)(C)C)c1C [Methoxyfenozide]
- LEL (mouse [17]): 1150 mg/kg/day
- LOAEL (mouse [17]): 1150 mg/kg/day
- NEL (mouse [17]): 428 mg/kg/day
- NOAEL (mouse [17]): 428 mg/kg/day
- LEL (rat [18]): 353 mg/kg/day
- LOAEL (rat [18]): 353 mg/kg/day
- NEL (rat [18]): 69.3 mg/kg/day
- NOAEL (rat [18]): 69.3 mg/kg/day
- LOAEL (mouse [19]; [46]): > 1020 mg/kg/day
- NOAEL (mouse [19]; [46]): ≥ 1020 mg/kg/day
- LEL (mouse [19]; [47]): 10 mg/kg/day
- NEL (mouse [19]; [47]): < 10 mg/kg/day
- LOAEL (dog [20]; [48]): 1150 mg/kg/day
- NEL (dog [20]; [48]): 9.8 mg/kg/day
- NOAEL (dog [20]; [48]): 106 mg/kg/day
- LEL (dog [20]; systemic / hematology / platelet / platelet + systemic / hematology / erythrocyte (rbc) count differential / erythrocyte (rbc)): 106 mg/kg/day
- LEL (rat [21]; [49]): 411 mg/kg/day
- NEL (rat [21]; [49]): 10.2 mg/kg/day
- LOAEL (rat [21]; systemic / in life observation / mortality / mortality + systemic / organ weight / liver / absolute + systemic / organ weight / liver / …): 1040 mg/kg/day
- LEL (dog [22]): 0.6 mg/kg/day
- LOAEL (dog [22]): > 198 mg/kg/day
- NEL (dog [22]): < 0.6 mg/kg/day
- NOAEL (dog [22]): ≥ 198 mg/kg/day
